We go through 16 compounds from patent publication US5304556A, “Benza-triazinone derivatives” (Mitsubishi Kasei Corporation, priority 1991, dated 1994).

For series [1], the system named is Rabbit platelet aggregation induced by PAF. As to the kind of experiment: Rabbit platelet aggregation inhibitory activity (PAF-induced). Format: cell-based, rabbit (New Zealand white). The note with it: Oryctolagus cuniculus, read-out: Rabbit Platelet Aggregation Inhibitory activity IC50. The procedure: To 0.9 volume of blood collected from jugular vein of a New Zealand white male rabbit weighing from 2.5 to 3.5 kg was added 0.1 volume of 3.8% aqueous sodium citrate, and the mixture was centrifuged at 110 xg for 15 minutes to give PRP ([…]). Assay of platelet aggregation induced by PAF was effected using 4 channels aggregometer (Manufacturer: Nicoh Bioscience Co.) according to Bohn et al, Turbidimetry [J. Physiology, Vol. 168, p.178, 1963]. […] The final concentration of PAF in the reaction mixture was adjusted to 10^-10 M.

Series [2] relates to mouse death due to shock induced by PAF. As to the kind of experiment: Activity to mouse death due to shock induced by PAF. It is filed as in vivo. To be noted: male ICR mouse; oral 1 hour prior to i.v. 100 μg/kg PAF; survival at 24 hours. As to the method:
Test was effected according to Young et al. method, Prostaglandins, Vol. 30, p.545, 1985. Lethal test was effected by treating starved male ICR mouse weighing from 25 g to 30 g with PAF without anesthesia. Test Compound was orally administered 1 hour prior to tail intravenous administration of 100 μg/kg of PAF. Survival rate of the test animal was examined 24 hours after intravenous administration of PAF.

The test system of series [3] is contraction of the respiratory tract due to PAF. The experiment in a line: Activity to contraction of the respiratory tract of guinea pig due to PAF. Format: in vivo, guinea pig (Hartley). The note with it: Cavia porcellus, read-out: Activity to Contraction of the Respiratory Tract of Guinea Pig due to PAF ED50. The procedure: Hartley male guinea pigs weighing from 350 g to 500 g were anesthetized by intraperitoneal administration of 50 mg/kg of sodium pentobarbital. Contraction of the respiratory tract was measured by inserting a cannula into trachea and measuring under artificial ventilation according to Conzet et al, Arch. […] 71. Test compound was orally administered 1 hour prior to intravenous administration of 0.3 μg/kg of PAF.

A short description of a further series: Acute toxicity. To be noted: in vivo; male and female SD (CD) rat; oral, 0.5% aqueous CMC-Na suspension; observed 14 days.
Series [4] concerns thromboxane synthetase enzyme. To be noted: Kokai Sho 63-316778, Table 1; cited from earlier work.
For series [5] the following is noted: Kokai Sho 60-132928, Table 2; cited from earlier work.
The mark [6] stands for this setting: rabbit PRP, PAF final concentration 10^-10 M.
Setting [7] is: Hartley male guinea pig, oral 1 hour prior to i.v. 0.3 μg/kg PAF.

Molecules are shown by their SMILES. Like-named read-outs stand apart in the source and are kept apart here.

With `N#Cc1ccc(N(c2ccc(C#N)cc2)c2ccc3c(c2)C(=O)N(Cc2cccnc2)C3=O)cc1` [compound 63, 5-[N,N-bis (4-cyanophenyl)amino]-2-(3-pyridylmethyl)-1H-isoindole-1,3 (2H)-dione], the IC50 in series [1] (setting [6]) stood at 1.7 nM. The ED50 came to 0.007 mg/kg in series [2] and 0.006 mg/kg in series [3] (setting [7]). Also, in the series “Acute toxicity”, the median lethal dose (LD50) at 336 h is over 2000 mg/kg.
As for `O=C1c2ccc(-c3cccc4ccccc34)cc2C(=O)N1Cc1cccnc1` [compound 50, 5-(1-naphthyl)-2-(3-pyridylmethyl)-1H-isoindole-1,3 (2H)-dione], the IC50 in series [1] (setting [6]) turned out to be 24 nM. The ED50 in series [2] was found to be 0.32 mg/kg.
As for `O=C1c2cc(Oc3ccc(Cl)cc3)ccc2CCN1Cc1cccnc1` [compound 84, 7-(4-chlorophenoxy)-3,4-dihydro-2-(3-pyridylmethyl)-1 (2H)-isoquinolinone], the IC50 in series [1] (setting [6]) came out at 10 nM.
Take `O=c1c2cc(Oc3ccc(Cl)cc3)ccc2ccn1-c1cccnc1` [compound 130, 7-(4-chlorophenoxy)-2-(3-pyridyl)-1 (2H)-isoquinolinone]: it took a dose of 0.018 mg/kg to reach the 50% effect level in series [2] (ED50).
In the case of `O=C1c2ccc(C(c3ccc(Cl)cc3)c3ccc(Cl)cc3)cc2C(=O)N1Cc1cccnc1` [compound 68, 5-[bis (4-chlorophenyl)methyl]-2-(3-pyridylmethyl)-1H-isoindole-1,3 (2H)-dione], the IC50 in series [1] (setting [6]) was 1.8 nM.
Take `O=C1c2ccc(N(c3ccc(Cl)cc3)c3ccc(Cl)cc3)cc2C(=O)N1Cc1cccnc1` [compound 60, 5-[N,N-bis (4-chlorophenyl)amino]-2-(3-pyridylmethyl)-1H-isoindole-1,3(2H)-dione]: in series [1] (setting [6]), the IC50 was 2.6 nM. For the same compound, the ED50 in series [2] and in series [3] (setting [7]) was 0.019 mg/kg throughout. The compound further yielded an LD50 at 336 h in “Acute toxicity” of over 2000 mg/kg.
In the case of `O=c1c2cc(Oc3ccc(Cl)cc3)ccc2nnn1Cc1cccnc1` [compound 2, 6-(4-chlorophenoxy)-3-(3-pyridylmethyl)-1,2,3-benzotriazin-4 (3H)-one], the IC50 in series [1] (setting [6]) amounted to 26 nM. The ED50 worked out at 2.1 mg/kg in series [2] and 0.15 mg/kg in series [3] (setting [7]). In “Acute toxicity”, this compound returned an LD50 at 336 h of over 2000 mg/kg.
Take `O=c1c2cc(Cl)ccc2nnn1CCCn1ccnc1` [formula (A)]: the “thromboxane synthetase enzyme inhibition” value in series [4] was “inhibits thromboxane synthetase enzyme”.
As for `O=C(c1ccc(Cl)cc1)c1ccc2c(c1)C(=O)N(Cc1cccnc1)C2=O` [compound 45, 5-(4-chlorobenzoyl)-2-(3-pyridylmethyl)-1H-isoindole-1,3 (2H)-dione], in series [1] (setting [6]), the IC50 is 19 nM. The same compound had an ED50 in series [2] of 0.6 mg/kg.
For `O=c1c2cc(Oc3ccc(Cl)cc3)ccc2ncn1Cc1cccnc1` [compound 131, 6-(4-chlorophenoxy)-3-(3-pyridylmethyl)-4 (3H)-quinazolinone], the IC50 in series [1] (setting [6]) is 31 nM.
`O=C1c2ccc(Oc3ccc(Cl)cc3)cc2C(=O)N1Cc1cccnc1` [compound 25, 5-(4-chlorophenoxy)-2-(3-pyridylmethyl)-1H-isoindole-1,3 (2H)-dione]: the IC50 in series [1] (setting [6]) turned out to be 10 nM. The 50% effective dose (ED50) in series [2] is 1.3 mg/kg; in series [3] (setting [7]), 0.14 mg/kg. Further, in the series “Acute toxicity”, the LD50 at 336 h was over 2000 mg/kg.
`Cc1nnc2n1-c1sc(CCC(=O)N3CCOCC3)cc1C(c1ccccc1Cl)=NC2` [WEB2086, reference compound]: the IC50 in series [1] amounted to 40 nM. Besides, the ED50 in series [2] came out at 1 mg/kg; in series [3] (po, 1 h), 0.15 mg/kg.
For the compound `O=c1c2cc(Oc3ccc(Cl)cc3)ccc2ccn1Cc1cccnc1` [compound 128, 7-(4-chlorophenoxy)-2-(3-pyridylmethyl)-1 (2H)-isoquinolinone], the 50% inhibitory concentration (IC50) in series [1] (setting [6]) was 18 nM.
On to `O=C1c2cc(Oc3ccc(F)cc3)ccc2CN1Cc1cccnc1` [compound 125, 2,3-dihydro-6-(4-fluorophenoxy)-2-(3-pyridylmethyl)-1H-isoindole-1-one], for which the IC50 in series [1] (setting [6]) is 36 nM.
As to `O=C1c2cccc(Oc3ccc(Cl)cc3)c2C(=O)N1Cc1cccnc1` [compound 72, 4-(4-chlorophenoxy)-2-(3-pyridylmethyl)-1H-isoindole-1,3 (2H)-dione], in series [1] (setting [6]), the IC50 is 32 nM. Besides, in series [2], the ED50 amounted to 0.4 mg/kg.
Regarding `CN1C(=O)c2ccc(Oc3ccc(C(F)(F)F)cc3Cl)cc2C1=O`, the herbicidal activity result in series [5] is “shows herbicidal activity”.
